Experimental data taken from patent US20260285850A1, “SUBSTITUTED OXAZOLIDINONES AND IMIDAZOLINONES AS HERBICIDES” (FMC CORPORATION, priority 2023, published 2026).

Assays:
Assay type in all cases: in vivo
[1] = test system: green foxtail (Setaria viridis); experiment: Test A postemergence application, visual injury rating 0-100
Summary of the method: (§1)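 Rating: visual, day 10, untreated plants as reference, 0 no effect to 100 full control. Plants were in loam-sand and were treated either preemergence via directed soil spray or postemergence at the one- to two-leaf stage.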

[2] = test system: blackgrass (Alopecurus myosuroides); experiment: as above
Summary of the method: as §1

kochia (Bassia scoparia) [3] = experiment: as above
Summary of the method: as §1

corn (Zea mays) [4] = experiment: as above
Summary of the method: as §1

[5] = test system: ragweed (common ragweed, Ambrosia artemisiifolia); experiment: as above
Summary of the method: as §1

soybean (Glycine max) [6] = experiment: as above
Summary of the method: as §1

[7] = test system: palmer (palmer amaranth, palmer pigweed, Amaranthus palmeri); experiment: as above
Summary of the method: as §1

[8] = test system: barnyardgrass (Echinochloa crus-galli); experiment: as above
Summary of the method: as §1

[9] = test system: ryegrass, Italian (italian ryegrass, Lolium multiflorum); experiment: as above
Summary of the method: as §1

[10] = test system: wheat (Triticum aestivum); experiment: as above
Summary of the method: as §1

[11] = test system: galium (catchweed bedstraw, Galium aparine); experiment: as above
Summary of the method: as §1

[12] = test system: oat, wild (wild oat, Avena fatua); experiment: as above
Summary of the method: as §1

[13] = test system: barnyardgrass (Echinochloa crusgalli); experiment: Test B flooded paddy test, visual plant response rating 0-100; details: 250 g ai/ha, Flood, applied to paddy water, evaluated after 13 days
Summary of the method: (§2)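 Visual evaluation after 13 days. Water-applied treatment, 3 cm flood depth held constant, plants at 2-leaf stage at treatment.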

[14] = test system: ducksalad (Heteranthera limosa); experiment: as above; details: 250 g ai/ha, Flood, applied to paddy water, evaluated after 13 days
Summary of the method: as §2

rice (Oryza sativa) = experiment: as above; details: 250 g ai/ha, Flood, applied to paddy water, evaluated after 13 days
Summary of the method: as §2

[15] = test system: sedge, umbrella (small-flower umbrella sedge, Cyperus difformis); experiment: as above; details: 250 g ai/ha, Flood, applied to paddy water, evaluated after 13 days
Summary of the method: as §2

[16] = test system: green foxtail (Setaria viridis); experiment: Test A preemergence soil spray, visual injury rating 0-100; details: 10 days
Summary of the method: as §1

[17] = test system: blackgrass (Alopecurus myosuroides); experiment: as above; details: 10 days
Summary of the method: as §1

kochia (Bassia scoparia) [18] = experiment: as above; details: 10 days
Summary of the method: as §1

corn (Zea mays) [19] = experiment: as above; details: 10 days
Summary of the method: as §1

[20] = test system: ragweed (common ragweed, Ambrosia artemisiifolia); experiment: as above; details: 10 days
Summary of the method: as §1

soybean (Glycine max) [21] = experiment: as above; details: 10 days
Summary of the method: as §1

[22] = test system: palmer (palmer amaranth, palmer pigweed, Amaranthus palmeri); experiment: as above; details: 10 days
Summary of the method: as §1

[23] = test system: barnyardgrass (Echinochloa crus-galli); experiment: as above; details: 10 days
Summary of the method: as §1

[24] = test system: ryegrass, Italian (italian ryegrass, Lolium multiflorum); experiment: as above; details: 10 days
Summary of the method: as §1

[25] = test system: wheat (Triticum aestivum); experiment: as above; details: 10 days
Summary of the method: as §1

[26] = test system: oat, wild (wild oat, Avena fatua); experiment: as above; details: 10 days
Summary of the method: as §1

[27] = 62 g ai/ha, postemergence, 10 days, 0 = no effect, 100 = complete control
[28] = Postemergence, 16 g ai/ha, greenhouse 10 days, 0 no effect, 100 complete control
[29] = 62 g ai/ha, 0 = no effect, 100 = complete control

COC(=O)C1C=CC(NC(=O)C2(C(F)(F)F)CN(c3cc(F)c(F)c(F)c3)C(=O)O2)C1 (mixture of isomers) [Compound 162]
60: Soybean plant response rating (0 to 100 scale) (soybean (Glycine max) [6]; [28]) | Galium plant response rating (0-100) [11, 27] | Blackgrass plant response rating (0-100) [17, 29]
20: Ragweed plant response rating (0 to 100 scale) [5, 28] | Plant response rating, Barnyardgrass (0 to 100 scale, 0 is no effect and 100 is complete control) [13] | Wheat plant response rating ([25]; 16 g ai/ha, 0 to 100 scale) | Oat, Wild plant response rating ([26]; 16 g ai/ha, 0 to 100 scale)
80: Foxtail, Green plant response rating (0-100) [1, 27] | Oat, Wild plant response rating (0 to 100 scale) [12, 28] | Barnyardgrass plant response rating (0-100) [23, 29] | Ryegrass, Italian plant response rating (0-100) [24, 29]
40: Ragweed plant response rating (0-100) [5, 27] | Kochia plant response rating (0-100) (kochia (Bassia scoparia) [18]; [29])
65: Plant response rating, Ducksalad (0 to 100 scale, 0 is no effect and 100 is complete control) [14]
30: Foxtail, Green plant response rating (0 to 100 scale) [1, 28] | Ryegrass, Italian plant response rating (0 to 100 scale) [9, 28] | Galium plant response rating (0 to 100 scale) [11, 28] | Foxtail, Green plant response rating (0-100) [16, 29] | Pigweed, Palmer plant response rating (0-100) [22, 29]
50: Pigweed, Palmer plant response rating (0-100) [7, 27] | Barnyardgrass plant response rating (0 to 100 scale) [8, 28] | Soybean plant response rating (0-100) (soybean (Glycine max) [21]; [29])
0: Kochia plant response rating (0 to 100 scale) (kochia (Bassia scoparia) [3]; [28]) | Plant response rating, Rice (0 to 100 scale, 0 is no effect and 100 is complete control) (rice (Oryza sativa)) | Plant response rating, Sedge, Umbrella (0 to 100 scale, 0 is no effect and 100 is complete control) [15] | Foxtail, Green plant response rating ([16]; 16 g ai/ha, 0 to 100 scale) | Blackgrass plant response rating ([17]; 16 g ai/ha, 0 to 100 scale) | Kochia plant response rating (kochia (Bassia scoparia) [18]; 16 g ai/ha, 0 to 100 scale) | Corn plant response rating (corn (Zea mays) [19]; 16 g ai/ha, 0 to 100 scale) | Ragweed plant response rating ([20]; 16 g ai/ha, 0 to 100 scale) | Pigweed, Palmer plant response rating ([22]; 16 g ai/ha, 0 to 100 scale) | Barnyardgrass plant response rating ([23]; 16 g ai/ha, 0 to 100 scale) | Ryegrass, Italian plant response rating ([24]; 16 g ai/ha, 0 to 100 scale)
10: Pigweed, Palmer plant response rating (0 to 100 scale) [7, 28] | Ragweed plant response rating (0-100) [20, 29] | Soybean plant response rating (soybean (Glycine max) [21]; 16 g ai/ha, 0 to 100 scale)
70: Kochia plant response rating (0-100) (kochia (Bassia scoparia) [3]; [27]) | Soybean plant response rating (0-100) (soybean (Glycine max) [6]; [27]) | Ryegrass, Italian plant response rating (0-100) [9, 27] | Corn plant response rating (0-100) (corn (Zea mays) [19]; [29])
100: Blackgrass plant response rating (0-100) [2, 27] | Corn plant response rating (0-100) (corn (Zea mays) [4]; [27]) | Corn plant response rating (0 to 100 scale) (corn (Zea mays) [4]; [28]) | Barnyardgrass plant response rating (0-100) [8, 27]
90: Blackgrass plant response rating (0 to 100 scale) [2, 28] | Wheat plant response rating (0-100) [10, 27] | Wheat plant response rating (0 to 100 scale) [10, 28] | Oat, Wild plant response rating (0-100) [12, 27] | Wheat plant response rating (0-100) [25, 29] | Oat, Wild plant response rating (0-100) [26, 29]
